Results: US12180187B2, “1-phenyl-5-azinylpyrazolyl-3-oxyalkyl acids and their use for controlling unwanted plant growth” (BAYER AKTIENGESELLSCHAFT, priority 2019, dated 2024)

Tests used:
[1] = system: LOLRI; assay: Post-emergence action against LOLRI, 1.28 kg/ha; format: in vivo, Lolium rigidum; conditions: dosage 1280 g/ha, visual rating about 3 weeks after treatment vs untreated controls
Procedure, shortened: (§1)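 Activity scored visually roughly 3 weeks after treatment against untreated plants (0% = as control, 100% = dead). Plants grown in sandy loam in greenhouse, treated at one-leaf stage, 2–3 weeks post-sowing, with WP/EC spray containing 0.5% additive at 600 l/ha.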

[2] = system: VIOTR; assay: Post-emergence action at 320 g/ha against VIOTR; format: in vivo, Viola tricolor; conditions: visual rating about 3 weeks after treatment vs untreated controls
Excerpt: (§2) Accordingly, the compounds of the invention have good herbicidal action against a broad spectrum of weed grasses and broad-leaved weeds and are therefore suitable for controlling unwanted vegetation by the post-emergence method. • b) Seeds of monocotyledonous and dicotyledonous weeds and crop plants are placed in sandy loam in plastic or organic planting pots, covered with soil and cultivated in a greenhouse under controlled growth conditions. 2 to 3 weeks after sowing, the test plants are treated at the one-leaf stage. The compounds of the invention, formulated in the form of wettable powders (WP) or as emulsion concentrates (EC), are then sprayed onto the green parts of the plants as aqueous suspension or emulsion with addition of 0.5% additive at a water application rate of 600 l/ha (converted). After the test plants have been kept in the greenhouse under optimum growth conditions for about 3 weeks, the activity of the preparations is rated visually in comparison to untreated controls. For example, 100% activity=the plants have died, 0% activity=like control plants. Tables 39 to 49 below show the effects of selected compounds of the general formula (I) according to Tables 1 and 2 on various harmful plants and at an application rate corresponding to 320 g/ha, which were obtained by the experimental procedure mentioned above.

[3] = system: AVEFA; assay: Post-emergence action at 320 g/ha against AVEFA; format: in vivo; conditions: visual rating about 3 weeks after treatment vs untreated controls
Procedure, shortened: (§3)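 Greenhouse pot plants in sandy loam received a foliar spray of WP- or EC-formulated compound at the one-leaf stage. Percent activity against untreated controls was assessed visually around three weeks later.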

[4] = system: HORMU; assay: Post-emergence action at 320 g/ha against HORMU; format: in vivo, Hordeum murinum; conditions: visual rating about 3 weeks after treatment vs untreated controls
Excerpt: as §2

[5] = system: MATIN; assay: Pre-emergence action against MATIN, 1280 g/ha; format: in vivo, Tripleurospermum inodorum (Matricaria inodora); conditions: scored visually after about 3 weeks vs untreated controls (100% = plants have died)
Procedure, shortened: (§4)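 Activity was scored visually as percent versus untreated controls about 3 weeks after treatment (100% = dead plants, 0% = control-like). Compounds, formulated as wettable powders or emulsion concentrates, were sprayed onto the covering soil over freshly sown seeds in sandy loam, with 0.5% additive and 600 L/ha water.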

[6] = system: SETVI; assay: Pre-emergence action at 320 g/ha against SETVI; format: in vivo, Setaria viridis; conditions: visual scoring after about 3 weeks vs untreated controls
Procedure, shortened: (§5)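 Effect rated visually (% vs untreated control) about 3 weeks after pre-emergence spraying of WP/EC formulation onto soil; spray carried 0.5% additive at 600 l/ha water.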

[7] = system: ALOMY; assay: Post-emergence action against ALOMY, 320 g/ha; format: in vivo, Alopecurus myosuroides; conditions: dosage 320 g/ha, visual rating about 3 weeks after treatment vs untreated controls (100% = plants died)
Procedure, shortened: as §3

[8] = system: STEME; assay: Post-emergence action against STEME, 1.28 kg/ha; format: in vivo, Stellaria media; conditions: dosage 1280 g/ha, visual rating about 3 weeks after treatment vs untreated controls (100% = plants died)
Procedure, shortened: as §1

[9] = system: DIGSA; assay: Post-emergence action against DIGSA, 1.28 kg/ha; format: in vivo, Digitaria sanguinalis; conditions: dosage 1280 g/ha, visual rating about 3 weeks after treatment vs untreated controls
Procedure, shortened: as §1

[10] = system: AMARE; assay: Post-emergence action against AMARE, 1.28 kg/ha; format: in vivo, Amaranthus retroflexus; conditions: dosage 1280 g/ha, visual rating about 3 weeks after treatment vs untreated controls (100% = plants died)
Procedure, shortened: as §1

[11] = system: ABUTH; assay: Post-emergence action against ABUTH, 1.28 kg/ha; format: in vivo, Abutilon theophrasti; conditions: dosage 1280 g/ha, visual rating about 3 weeks after treatment vs untreated controls (100% = plants died)
Procedure, shortened: as §1

[12] = system: POLCO; assay: Pre-emergence action at 320 g/ha against POLCO; format: in vivo, Fallopia convolvulus (Polygonum convolvulus); conditions: visual scoring after about 3 weeks vs untreated controls
Procedure, shortened: as §5

[13] = system: SETVI; assay: Pre-emergence action against SETVI, 1280 g/ha; format: in vivo, Setaria viridis; conditions: visual scoring after about 3 weeks vs untreated controls, 100% = plants have died, 0% = like control plants
Procedure, shortened: as §4

[14] = system: ECHCG; assay: Pre-emergence action against ECHCG, 1280 g/ha; format: in vivo, Echinochloa crus-galli; conditions: visual scoring after about 3 weeks vs untreated controls, 100% = plants have died, 0% = like control plants
Procedure, shortened: as §4

[15] = system: STEME; assay: Pre-emergence action against STEME, 1280 g/ha; format: in vivo, Stellaria media; conditions: scored visually after about 3 weeks vs untreated controls (100% = plants have died)
Procedure, shortened: as §4

[16] = system: MATIN; assay: Post-emergence action against MATIN, 1.28 kg/ha; format: in vivo, Tripleurospermum inodorum (Matricaria inodora); conditions: dosage 1280 g/ha, visual rating about 3 weeks after treatment vs untreated controls (100% = plants died)
Procedure, shortened: as §1

[17] = system: VIOTR; assay: Pre-emergence action at 320 g/ha against VIOTR; format: in vivo, Viola tricolor; conditions: dosage 320 g/ha
Procedure, shortened: as §5

[18] = system: POLCO; assay: Post-emergence action at 320 g/ha against POLCO; format: in vivo, Fallopia convolvulus (Polygonum convolvulus); conditions: visual rating about 3 weeks after treatment vs untreated controls
Procedure, shortened: as §3

[19] = system: VERPE; assay: Pre-emergence action against VERPE, 1280 g/ha; format: in vivo, Veronica persica; conditions: scored visually after about 3 weeks vs untreated controls (100% = plants have died)
Procedure, shortened: as §4

[20] = system: POAAN; assay: Post-emergence action against POAAN, 1.28 kg/ha; format: in vivo, Poa annua; conditions: dosage 1280 g/ha, visual rating about 3 weeks after treatment vs untreated controls
Procedure, shortened: as §1

[21] = system: LOLRI; assay: Pre-emergence action against LOLRI, 1280 g/ha; format: in vivo, Lolium rigidum; conditions: visual scoring after about 3 weeks vs untreated controls, 100% = plants have died, 0% = like control plants
Procedure, shortened: as §4

[22] = system: SETVI; assay: Post-emergence action at 320 g/ha against SETVI; format: in vivo, Setaria viridis; conditions: visual rating about 3 weeks after treatment vs untreated controls
Procedure, shortened: as §3

[23] = system: DIGSA; assay: Pre-emergence action at 320 g/ha against DIGSA; format: in vivo, Digitaria sanguinalis; conditions: visual scoring after about 3 weeks vs untreated controls
Procedure, shortened: as §5

[24] = system: POAAN; assay: Pre-emergence action against POAAN, 1280 g/ha; format: in vivo, Poa annua; conditions: visual scoring after about 3 weeks vs untreated controls, 100% = plants have died, 0% = like control plants
Procedure, shortened: as §4

[25] = system: STEME; assay: Pre-emergence action at 320 g/ha against STEME; format: in vivo, Stellaria media; conditions: greenhouse, scored visually after about 3 weeks vs untreated controls, 100% = plants have died, 0% = like control plants
Excerpt: b) Seeds of monocotyledonous and dicotyledonous weed plants and crop plants are placed in plastic or organic planting pots and covered with soil. The compounds of the invention, formulated in the form of wettable powders (WP) or as emulsion concentrates (EC), are then applied onto the surface of the covering soil as aqueous suspension or emulsion with addition of 0.5% additive at a water application rate of 600 l/ha (converted). After the treatment, the pots are placed in a greenhouse and kept under good growth conditions for the trial plants. After about 3 weeks, the effect of the preparations is scored visually in comparison with untreated controls as percentages. For example, 100% activity=the plants have died, 0% activity=like control plants. Tables 13 to 26 below show the effects of selected compounds of the general formula (I) on various harmful plants and at an application rate corresponding to 320 g/ha, which were obtained by the experimental procedure mentioned above.

[26] = system: DIGSA; assay: Pre-emergence action against DIGSA, 1280 g/ha; format: in vivo, Digitaria sanguinalis; conditions: visual scoring after about 3 weeks vs untreated controls, 100% = plants have died, 0% = like control plants
Procedure, shortened: as §4

[27] = system: AMARE; assay: Pre-emergence action against AMARE, 1280 g/ha; format: in vivo, Amaranthus retroflexus; conditions: scored visually after about 3 weeks vs untreated controls (100% = plants have died)
Procedure, shortened: as §4

[28] = system: SETVI; assay: Post-emergence action against SETVI, 1.28 kg/ha; format: in vivo, Setaria viridis; conditions: dosage 1280 g/ha, visual rating about 3 weeks after treatment vs untreated controls
Procedure, shortened: as §1

[29] = system: VERPE; assay: Post-emergence action against VERPE, 1.28 kg/ha; format: in vivo, Veronica persica; conditions: dosage 1280 g/ha, visual rating about 3 weeks after treatment vs untreated controls (100% = plants died)
Procedure, shortened: as §1

[30] = system: AMARE; assay: Pre-emergence action at 320 g/ha against AMARE; format: in vivo, Amaranthus retroflexus; conditions: visual scoring after about 3 weeks vs untreated controls
Procedure, shortened: as §5

COC(=O)C(C)Oc1nn(-c2ccccc2)c(-c2ccnc(Cl)c2)c1Cl (stereo not drawn) [VIII-001]
Post-emergence action against LOLRI [1]: 90% | Post-emergence action against VIOTR in % [2]: 80% | Post-emergence action against AVEFA in % [3]: 80% | Post-emergence action against HORMU in % [4]: 80% | Pre-emergence action against MATIN [5]: 90% | Pre-emergence action against SETVI in % [6]: 100% | Post-emergence action against ALOMY [7]: 90% | Post-emergence action against STEME [8]: 100% | Post-emergence action against DIGSA [9]: 90% | Post-emergence action against AMARE [10]: 90% | Post-emergence action against ABUTH [11]: 90% | Pre-emergence action against POLCO in % [12]: 90% | Pre-emergence action against SETVI [13]: 100% | Pre-emergence action against ECHCG [14]: 100% | Pre-emergence action against STEME [15]: 90% | Post-emergence action against MATIN [16]: 90% | Pre-emergence action against VIOTR in % [17]: 90% | Post-emergence action against POLCO in % [18]: 90% | Pre-emergence action against VERPE [19]: 100% | Post-emergence action against POAAN [20]: 100% | Pre-emergence action against LOLRI [21]: 100% | Post-emergence action against SETVI in % [22]: 80% | Pre-emergence action against DIGSA in % [23]: 100% | Pre-emergence action against POAAN [24]: 100% | Pre-emergence action at 320 g/ha against STEME in % [25]: 90% | Pre-emergence action against DIGSA [26]: 90% | Pre-emergence action against AMARE [27]: 90% | Post-emergence action against SETVI [28]: 90% | Post-emergence action against VERPE [29]: 100% | Pre-emergence action against AMARE in % [30]: 90%
